Patent US8722849B2, “Polypeptides” (Novo Nordisk A/S, priority 2011, dated 2014)
pEC50: −log10 of the molar value. ≈ marks a conversion by molar mass, not a printed value. Like-named read-outs stand apart in the source and are kept apart here. Starred links: 1 amine or outer side, 2 acyl side, 3 side chain; linkers in the order of their positions; H or OH if unused. Positions of bridges follow the written chain, without caps; N, C: chain ends. Residues, ends and D or L forms follow the SMILES beside them. *: point of attachment. C20 diacid = O=C(O)CCCCCCCCCCCCCCCCCCC(=O)*; C18 diacid = O=C(O)CCCCCCCCCCCCCCCCC(=O)*; γGlu = O=C(O)[C@H](CCC(=O)[*:2])N[*:1]

What was measured:
[1] = molecular target: T1, human amylin receptor (amylin 3(a) receptor: human calcitonin receptor + RAMP-3) (Homo sapiens, UniProt O60896+P30988); experiment: Assay (II)a functional CRE-luciferase assay, human amylin receptor; type: cell-based; conditions: Table 2; BHK amylin 3(a)-receptor/CRE-luc cells
T1 construct: expressed in transfected cells; host or cells: BHK570
T1 sequence (P30988 25-474): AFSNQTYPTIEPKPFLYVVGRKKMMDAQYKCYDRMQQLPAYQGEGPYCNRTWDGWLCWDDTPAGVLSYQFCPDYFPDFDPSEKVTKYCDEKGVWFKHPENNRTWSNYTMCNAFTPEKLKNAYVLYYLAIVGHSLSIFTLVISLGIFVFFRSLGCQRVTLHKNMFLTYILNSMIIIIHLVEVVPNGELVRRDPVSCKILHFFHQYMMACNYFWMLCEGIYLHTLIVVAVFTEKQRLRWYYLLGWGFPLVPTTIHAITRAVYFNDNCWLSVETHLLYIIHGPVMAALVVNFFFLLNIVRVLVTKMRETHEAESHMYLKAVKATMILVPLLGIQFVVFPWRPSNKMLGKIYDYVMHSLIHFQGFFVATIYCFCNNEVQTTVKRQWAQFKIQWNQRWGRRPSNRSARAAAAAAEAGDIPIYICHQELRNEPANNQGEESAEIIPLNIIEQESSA
T1 sequence (O60896 24-148 partner): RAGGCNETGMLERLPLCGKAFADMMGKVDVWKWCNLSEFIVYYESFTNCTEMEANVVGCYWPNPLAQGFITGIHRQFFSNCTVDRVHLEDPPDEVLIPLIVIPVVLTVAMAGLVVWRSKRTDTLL

[2] = molecular target: T2, human calcitonin receptor (Homo sapiens, UniProt P30988); experiment: Assay (II)a functional CRE-luciferase assay, human calcitonin receptor; type: cell-based; conditions: Table 7; human calcitonin (CTa) receptor
T2 construct: expressed in transfected cells; host or cells: BHK570
T2 sequence (P30988 25-474): T1 sequence (P30988 25-474)

[3] = Assay (III) ThT fibrillation assay for physical stability; type: physicochemical; conditions: ThT fibrillation assay
Outline: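 Freshly prepared formulations, pH-adjusted, with 1 μM ThT; four or eight replicates incubated at 37 °C under 960 rpm orbital shaking. Fluorescence (ex 444/em 485 nm) read every 20 min; […]. Peptide concentration measured by RP-HPLC before and after the run.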

[4] = Assay (IV) determination of solubility; type: physicochemical
Outline: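 Solubility was profiled across pH 3.0–8.0 after 18 hours at room temperature: a ~500 nmol/ml aqueous polypeptide solution was diluted 1:1 into 100 mM glycylglycine or bistrispropane buffers. After centrifugation, HPLC gave the dissolved concentration.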

[5] = bistrispropane buffer, pH 6, pH 6.0, read-out: Solubility pH 6.0
[6] = bistrispropane buffer, pH 6.5, pH 6.5, read-out: Solubility pH 6.5
[7] = bistrispropane buffer, pH 7, pH 7.0, read-out: Solubility pH 7.0
[8] = bistrispropane buffer, pH 7.5, pH 7.5, read-out: Solubility pH 7.5
[9] = bistrispropane buffer, pH 8, pH 8.0, read-out: Solubility pH 8.0
[10] = glycylglycine buffer, pH 3, pH 3.0, read-out: Solubility pH 3.0
[11] = glycylglycine buffer, pH 4, pH 4.0, 18 hours at room temperature, Table 2, read-out: Solubility pH 4.0
[12] = glycylglycine buffer, pH 4, pH 4.0, read-out: Solubility pH 4.0
[13] = glycylglycine buffer, pH 5, pH 5.0, read-out: Solubility pH 5.0
[14] = bistrispropane buffer, pH 7, pH 7.0, 18 hours at room temperature, Table 3, read-out: Solubility pH 7.0

Row | pEC50 [1] | pEC50 [2] | ThT pH 4.0 lag time [3] [h] | ThT pH 4.0 lag time (h) [3] [h] | solubility at 18 h [4, 5] [µM] | solubility at 18 h [4, 6] [µM] | solubility at 18 h [4, 7] [µM] | solubility at 18 h [4, 8] [µM] | solubility at 18 h [4, 9] [µM] | solubility at 18 h [4, 10] [µM] | solubility at 18 h [4, 11] [µM] | solubility at 18 h [4, 12] [µM] | solubility at 18 h [4, 13] [µM] | solubility at 18 h [4, 14] [µM] | Compound
1 | 10.23 | 10.00 | >45 | >45 | > 200 | 69 (≈ 317 µg/mL) | 32 (≈ 147 µg/mL) | 52 (≈ 239 µg/mL) | 89 (≈ 408 µg/mL) | > 200 | > 200 | > 200 | > 200 | – | CC[C@H](C)[C@H](NC(=O)[C@@H]1CCCN1C(=O)CNC(=O)[C@H](Cc1ccccc1)NC(=O)[C@H](CC(N)=O)NC(=O)[C@H](CC(N)=O)NC(=O)[C@H](CO)NC(=O)[C@H](CO)NC(=O)[C@H](Cc1c[nH]cn1)NC(=O)[C@H](Cc1c[nH]cn1)NC(=O)[C@H](CC(C)C)NC(=O)[C@H](Cc1ccccc1)NC(=O)[C@H](CCC(=O)O)NC(=O)[C@H](C)NC(=O)[C@H](CC(C)C)NC(=O)[C@H](CCCNC(=N)N)NC(=O)[C@H](CCC(N)=O)NC(=O)[C@@H](NC(=O)[C@H](C)NC(=O)[C@@H]1CSSC[C@H](NC(=O)[C@H](CCCCN)NC(=O)[C@H](Cc2c[nH]cn2)NC(=O)CC[C@H](NC(=O)CCCCCCCCCCCCCCCCC(=O)O)C(=O)O)C(=O)N[C@@H](CC(N)=O)C(=O)N[C@@H]([C@@H](C)O)C(=O)N[C@@H](C)C(=O)N[C@@H]([C@@H](C)O)C(=O)N1)[C@@H](C)O)C(=O)N[C@@H](CC(C)C)C(=O)N1CCC[C@H]1C(=O)N1CCC[C@H]1C(=O)N[C@H](C(=O)N[C@@H](CC(N)=O)C(=O)N[C@H](C(=O)NCC(=O)N[C@@H](CO)C(=O)N[C@@H](Cc1c[nH]cn1)C(=O)N[C@H](C(=O)N[C@@H](Cc1ccc(O)cc1)C(N)=O)[C@@H](C)O)C(C)C)[C@@H](C)O [Example 70, N-alpha-[(S)-4-Carboxy-4-(17-carboxyheptadecanoylamino)butyryl]-His-[Glu14,His17,His35]-pramlintide] ({C18 diacid-γGlu}-HKCNTATCATQRLAEFLHHSSNNFGPILPPTNVGSHTY-NH2; disulfide 3-8 (inferred); C-terminus assumed)
2 | 10.28 | 10.31 | – | 15.3 | > 200 | > 200 | > 200 | > 200 | > 200 | > 200 | > 200 | > 200 | > 200 | > 200 | CC[C@H](C)[C@H](NC(=O)[C@@H]1CCCN1C(=O)CNC(=O)[C@H](Cc1ccccc1)NC(=O)[C@H](CC(N)=O)NC(=O)[C@H](CC(N)=O)NC(=O)[C@H](CO)NC(=O)[C@H](CO)NC(=O)[C@H](Cc1c[nH]cn1)NC(=O)[C@H](Cc1c[nH]cn1)NC(=O)[C@H](CC(C)C)NC(=O)[C@H](Cc1ccccc1)NC(=O)[C@H](CCC(=O)O)NC(=O)[C@H](C)NC(=O)[C@H](CC(C)C)NC(=O)[C@H](CCCNC(=N)N)NC(=O)[C@H](CCC(N)=O)NC(=O)[C@@H](NC(=O)[C@H](C)NC(=O)[C@@H]1CSSC[C@H](NC(=O)[C@H](Cc2c[nH]cn2)NC(=O)CNC(=O)CC[C@H](NC(=O)CCCCCCCCCCCCCCCCCCC(=O)O)C(=O)O)C(=O)N[C@@H](CC(N)=O)C(=O)N[C@@H]([C@@H](C)O)C(=O)N[C@@H](C)C(=O)N[C@@H]([C@@H](C)O)C(=O)N1)[C@@H](C)O)C(=O)N[C@@H](CC(C)C)C(=O)N1CCC[C@H]1C(=O)N1CCC[C@H]1C(=O)N[C@H](C(=O)N[C@@H](CC(N)=O)C(=O)N[C@H](C(=O)NCC(=O)N[C@@H](CO)C(=O)N[C@@H](CC(N)=O)C(=O)N[C@H](C(=O)N1CCC[C@H]1C(N)=O)[C@@H](C)O)C(C)C)[C@@H](C)O [Example 92, N-alpha-[(S)-4-Carboxy-4-(19-carboxynonadecanoylamino)butyryl]-Gly-[His1,Glu14,His17,Pro37]-pramlintide] ({C20 diacid-γGlu}-GHCNTATCATQRLAEFLHHSSNNFGPILPPTNVGSNTP-NH2; disulfide 3-8 (inferred); C-terminus assumed)
3 | 9.76 | 9.12 | – | 4.7 | > 200 | > 200 | > 200 | > 200 | > 200 | > 200 | > 200 | > 200 | 69 (≈ 309 µg/mL) | > 200 | CC[C@H](C)[C@H](NC(=O)[C@@H]1CCCN1C(=O)CNC(=O)[C@H](Cc1ccccc1)NC(=O)[C@H](CC(N)=O)NC(=O)[C@H](CC(N)=O)NC(=O)[C@H](CO)NC(=O)[C@H](CO)NC(=O)[C@H](CCCNC(=N)N)NC(=O)[C@H](Cc1c[nH]cn1)NC(=O)[C@H](CC(C)C)NC(=O)[C@H](Cc1ccccc1)NC(=O)[C@H](CCC(=O)O)NC(=O)[C@H](C)NC(=O)[C@H](CC(C)C)NC(=O)[C@H](CCCNC(=N)N)NC(=O)[C@H](CCC(N)=O)NC(=O)[C@@H](NC(=O)[C@H](C)NC(=O)[C@@H]1CSSC[C@H](NC(=O)[C@H](CCC(=O)O)NC(=O)CC[C@H](NC(=O)CCCCCCCCCCCCCCCCCCC(=O)O)C(=O)O)C(=O)N[C@@H](CC(N)=O)C(=O)N[C@@H]([C@@H](C)O)C(=O)N[C@@H](C)C(=O)N[C@@H]([C@@H](C)O)C(=O)N1)[C@@H](C)O)C(=O)N[C@@H](CC(C)C)C(=O)N1CCC[C@H]1C(=O)N1CCC[C@H]1C(=O)N[C@H](C(=O)N[C@@H](CC(N)=O)C(=O)N[C@H](C(=O)NCC(=O)N[C@@H](CO)C(=O)N[C@@H](CC(N)=O)C(=O)N[C@H](C(=O)N[C@@H](Cc1ccc(O)cc1)C(N)=O)[C@@H](C)O)C(C)C)[C@@H](C)O [Example 30, N-alpha-[(S)-4-Carboxy-4-(19-carboxynonadecanoylamino)butyryl]-[Glu1,Glu14,His17,Arg18]-pramlintide] ({C20 diacid-γGlu}-ECNTATCATQRLAEFLHRSSNNFGPILPPTNVGSNTY-NH2; disulfide 2-7 (inferred))
4 | 8.82 | 9.30 | – | 1.3 | > 200 | > 200 | > 200 | > 200 | > 200 | > 200 | > 200 | > 200 | > 200 | > 200 | CC[C@H](C)[C@H](NC(=O)[C@@H]1CCCN1C(=O)CNC(=O)[C@H](Cc1ccccc1)NC(=O)[C@H](CC(N)=O)NC(=O)[C@H](CCC(N)=O)NC(=O)[C@H](CO)NC(=O)[C@H](CO)NC(=O)[C@H](Cc1c[nH]cn1)NC(=O)[C@@H](NC(=O)[C@H](CC(C)C)NC(=O)[C@H](Cc1ccccc1)NC(=O)[C@H](CCC(=O)O)NC(=O)[C@H](C)NC(=O)[C@H](CC(C)C)NC(=O)[C@H](CCCNC(=N)N)NC(=O)[C@H](CCC(N)=O)NC(=O)[C@@H](NC(=O)[C@H](C)NC(=O)[C@@H]1CSSC[C@H](NC(=O)[C@H](CCC(=O)O)NC(=O)CC[C@H](NC(=O)CCCCCCCCCCCCCCCCCCC(=O)O)C(=O)O)C(=O)N[C@@H](CC(N)=O)C(=O)N[C@@H]([C@@H](C)O)C(=O)N[C@@H](C)C(=O)N[C@@H]([C@@H](C)O)C(=O)N1)[C@@H](C)O)C(C)C)C(=O)N[C@@H](CC(C)C)C(=O)N1CCC[C@H]1C(=O)N1CCC[C@H]1C(=O)N[C@H](C(=O)N[C@@H](CC(N)=O)C(=O)N[C@H](C(=O)NCC(=O)N[C@@H](CO)C(=O)N[C@@H](CCC(N)=O)C(=O)N[C@H](C(=O)N1CCC[C@H]1C(N)=O)[C@@H](C)O)C(C)C)[C@@H](C)O [Example 138, N-alpha-[(S)-4-Carboxy-4-(19-carboxynonadecanoylamino)butyryl]-[Glu1,Glu14,Gln21,Gln35,Pro37]-pramlintide] ({C20 diacid-γGlu}-ECNTATCATQRLAEFLVHSSQNFGPILPPTNVGSQTP-NH2; disulfide 2-7)
